# In patent US5041567A, “Antibacterial monic acid derivatives” (Beecham Group plc, priority 1982, dated 1991):
# Read-outs that look alike come from different tables or passages of the source.
# Experiments:
# K. aerogenes A = test: MIC against human bacteria in vitro; assay type: cell-based; conditions: K. aerogenes A, 5% chocolated horse blood agar, 18 hours
# M. suipneumoniae MS 16 = test: MIC against mycoplasma in vitro; assay type: cell-based
# [1] = tested on: M. bovigenitalium ATCC 14173; test: MIC against mycoplasma in vitro; assay type: cell-based; conditions: M. bovigenitalium ATCC 14173, 6 days, 37° C.
# [2] = tested on: Neisseria catarrhalis 1502; test: MIC against human bacteria in vitro; assay type: cell-based; conditions: Neisseria catarrhalis 1502, 5% chocolated horse blood agar, 18 hours
# M. hyorhinis ATCC 23234 = test: MIC against mycoplasma in vitro; assay type: cell-based
# Bord. bronchiseptica B08 = test: MIC against veterinary bacteria in vitro
# Method: (§1) The activity of the compounds of the Examples against various veterinarily important bacteria, was assayed in vitro using two-fold serial dilutions in Diagnostic Sensitivity Test Agar inoculated with 10^4 organisms.
# M. suipneumoniae LABER = test: MIC against mycoplasma in vitro; assay type: cell-based
# Strep. faecalis I = test: MIC against human bacteria in vitro; assay type: cell-based; conditions: Strep. faecalis I, 5% chocolated horse blood agar, 18 hours
# Staph. aureus Russell = test: MIC against human bacteria in vitro; assay type: cell-based; conditions: Staph. aureus Russell, 5% chocolated horse blood agar, 18 hours
# M. suipneumoniae UCD 1 = test: MIC against mycoplasma in vitro; assay type: cell-based
# Strep. pneumoniae CN33 = test: MIC against human bacteria in vitro; assay type: cell-based; conditions: Strep. pneumoniae CN33, 5% chocolated horse blood agar, 18 hours
# [3] = tested on: M. hyosynoviae ATCC 25591; test: MIC against mycoplasma in vitro; assay type: cell-based
# [4] = tested on: Haemophilus influenzae Wy21; test: MIC against human bacteria in vitro; assay type: cell-based
# [5] = tested on: M. suipneumoniae J2206/183^b; test: MIC against mycoplasma in vitro; assay type: cell-based
# Staph. aureus W2827 = test: MIC against human bacteria in vitro; assay type: cell-based; conditions: Staph. aureus W2827, 5% chocolated horse blood agar, 18 hours
# [6] = tested on: Corynebacterium pyogenes CY1; test: MIC against veterinary bacteria in vitro
# Method: as §1
# Strep. dysgalactiae SPD1 = test: MIC against veterinary bacteria in vitro
# Method: as §1
# Past. haemolytica PA5 = test: MIC against veterinary bacteria in vitro
# Method: as §1
# Bord. bronchiseptica B09 = test: MIC against veterinary bacteria in vitro
# Method: as §1
# Past. multocida PA1 = test: MIC against veterinary bacteria in vitro
# Method: as §1
# [7] = tested on: Strep. suis (group D) SPS11; test: MIC against veterinary bacteria in vitro
# Method: as §1
# [8] = tested on: M. suipneumoniae ATCC 25095; test: MIC against mycoplasma in vitro; assay type: cell-based
# M. hyorhinis ATCC 25021 = test: MIC against mycoplasma in vitro; assay type: cell-based
# Past. multocida PA2 = test: MIC against veterinary bacteria in vitro
# Method: as §1
# M. bovis NCTC 10131 = test: microbe, parasite or virus in culture; assay type: cell-based
# Strep. agalactiae 2788-B = test: MIC against human bacteria in vitro; assay type: cell-based; conditions: Strep. agalactiae 2788-B, 5% chocolated horse blood agar, 18 hours
# [9] = tested on: Staph. aureus B4 (pen. resistant); test: MIC against veterinary bacteria in vitro
# Method: as §1
# M. suipneumoniae NB12 = test: MIC against mycoplasma in vitro; assay type: cell-based
# P. mirabilis 889 = test: MIC against human bacteria in vitro; assay type: cell-based; conditions: P. mirabilis 889, 5% chocolated horse blood agar, 18 hours
# [10] = tested on: Erysipelothrix rhusiopathiae NCTC 8163; test: MIC against veterinary bacteria in vitro
# Method: as §1
# M. suipneumoniae TAM 6N = test: MIC against mycoplasma in vitro; assay type: cell-based
# M. suipneumoniae HK(2) = test: MIC against mycoplasma in vitro; assay type: cell-based
# [11] = tested on: Ps. aeruginosa NCTC 10662; test: MIC against human bacteria in vitro; assay type: cell-based; conditions: Ps. aeruginosa NCTC 10662, 5% chocolated horse blood agar, 18 hours
# [12] = tested on: Corynebacterium xerosis 9755; test: MIC against human bacteria in vitro; assay type: cell-based; conditions: Corynebacterium xerosis 9755, 5% chocolated horse blood agar, 18 hours
# [13] = Mesomycoplasma hyopneumoniae, 144 h
# [14] = Staphylococcus aureus, read-out: MIC
smiles,measurement,setting,value
"CC(=Cc1cc(C)no1)CC1OCC(CC2OC2C(C)C(C)O)C(O)C1O (centres unmarked) [Example 30, 3-Methyl-5-(1-normon-2-yl) isoxazole A]",MIC,K. aerogenes A,> 128 µg/mL
same,MIC,"M. suipneumoniae MS 16; M. suipneumoniae MS 16, 6 days, 37° C.",2.5 µg/mL
same,MIC,[1],0.25 µg/mL
same,MIC,[2],8.0 µg/mL
same,MIC,"M. hyorhinis ATCC 23234; M. hyorhinis ATCC 23234, 6 days, 37° C.",0.5 µg/mL
same,MIC,"Bord. bronchiseptica B08; Bord. bronchiseptica B08, Diagnostic Sensitivity Test Agar, 18 hours",> 80 µg/mL
same,MIC,"M. suipneumoniae LABER; M. suipneumoniae LABER, 6 days, 37° C.",2.5 µg/mL
same,MIC,Strep. faecalis I,> 128 µg/mL
same,MIC,Staph. aureus Russell,16 µg/mL
same,MIC,"M. suipneumoniae UCD 1; M. suipneumoniae UCD 1, 6 days, 37° C.",2.5 µg/mL
same,MIC,Strep. pneumoniae CN33,128 µg/mL
same,MIC,"[3]; M. hyosynoviae ATCC 25591, 6 days, 37° C.",1.0 µg/mL
same,MIC,"[4]; Haemophilus influenzae Wy21, 5% chocolated horse blood agar, 18 hours",< 0.06 µg/mL
same,MIC,"[5]; M. suipneumoniae J2206/183^b, 6 days, 37° C.",2.5 µg/mL
same,MIC,Staph. aureus W2827,16 µg/mL
same,MIC,"[6]; Corynebacterium pyogenes CY1, Diagnostic Sensitivity Test Agar, 18 hours",> 80 µg/mL
same,MIC,"Strep. dysgalactiae SPD1; Strep. dysgalactiae SPD1, Diagnostic Sensitivity Test Agar, 18 hours",40 µg/mL
same,MIC,"Past. haemolytica PA5; Past. haemolytica PA5, Diagnostic Sensitivity Test Agar, 18 hours",10 µg/mL
same,MIC,"Bord. bronchiseptica B09; Bord. bronchiseptica B09, Diagnostic Sensitivity Test Agar, 18 hours",> 80 µg/mL
same,MIC,"Past. multocida PA1; Past. multocida PA1, Diagnostic Sensitivity Test Agar, 18 hours",2.5 µg/mL
same,MIC,"[7]; Strep. suis (group D) SPS11, Diagnostic Sensitivity Test Agar, 18 hours",> 80 µg/mL
same,MIC,"[8]; M. suipneumoniae ATCC 25095, 6 days, 37° C.",2.5 µg/mL
same,MIC,"M. hyorhinis ATCC 25021; M. hyorhinis ATCC 25021, 6 days, 37° C.",0.5 µg/mL
same,MIC,"Past. multocida PA2; Past. multocida PA2, Diagnostic Sensitivity Test Agar, 18 hours",0.312 µg/mL
same,MIC,"M. bovis NCTC 10131; M. bovis NCTC 10131, 6 days, 37° C.",0.25 µg/mL
same,MIC,Strep. agalactiae 2788-B,128 µg/mL
same,MIC,"[9]; Staph. aureus B4 (pen. resistant), Diagnostic Sensitivity Test Agar, 18 hours",1.25 µg/mL
same,MIC,"M. suipneumoniae NB12; M. suipneumoniae NB12, Friis broth, 0.9% agarose, 6 days, 37° C.",5.0 µg/mL
same,MIC,P. mirabilis 889,> 128 µg/mL
same,MIC,"[10]; Erysipelothrix rhusiopathiae NCTC 8163, Diagnostic Sensitivity Test Agar, 18 hours",> 80 µg/mL
same,MIC,"M. suipneumoniae TAM 6N; M. suipneumoniae TAM 6N, 6 days, 37° C.",5.0 µg/mL
same,MIC,"M. suipneumoniae HK(2); M. suipneumoniae HK(2), 6 days, 37° C.",2.5 µg/mL
same,MIC,[11],> 128 µg/mL
same,MIC,[12],> 128 µg/mL
"C/C(=C\c1cc(C)on1)C[C@@H]1OC[C@H](C[C@@H]2O[C@H]2[C@@H](C)[C@H](C)O)[C@@H](O)[C@H]1O [Example 33, 5-Methyl-3-(1-normon-2-yl) isoxazole A]",MIC,"K. aerogenes A; Klebsiella aerogenes, read-out: MIC",> 128 µg/mL
same,MIC,"M. suipneumoniae MS 16; Mesomycoplasma hyopneumoniae, MS16, 144 h",1 µg/mL
same,MIC,"[1]; 144 h, read-out: MIC",0.5 µg/mL
same,MIC,[2]; read-out: MIC,4 µg/mL
same,MIC,"M. hyorhinis ATCC 23234; Mesomycoplasma hyorhinis, ATCC23234, 144 h",1 µg/mL
same,MIC,"Bord. bronchiseptica B08; Bordetella bronchiseptica, B08, 18 h",> 80 µg/mL
same,MIC,M. suipneumoniae LABER; [13],2.5 µg/mL
same,MIC,"Strep. faecalis I; Enterococcus faecalis, read-out: MIC",> 128 µg/mL
same,MIC,Staph. aureus Russell; [14],8 µg/mL
same,MIC,"M. suipneumoniae UCD 1; Mesomycoplasma hyopneumoniae, UCD1, 144 h",1 µg/mL
same,MIC,"Strep. pneumoniae CN33; Streptococcus pneumoniae, read-out: MIC",32 µg/mL
same,MIC,[3]; 144 h,2.5 µg/mL
same,MIC,"[4]; Haemophilus influenzae, WY21, 18 h",0.25 µg/mL
same,MIC,[5]; [13],1 µg/mL
same,MIC,Staph. aureus W2827; [14],8 µg/mL
same,MIC,"[6]; CY1, 18 h",> 80 µg/mL
same,MIC,"Strep. dysgalactiae SPD1; Streptococcus dysgalactiae, SPD1, 18 h",5 µg/mL
same,MIC,"Past. haemolytica PA5; Mannheimia haemolytica, PA5, 18 h",20 µg/mL
same,MIC,"Bord. bronchiseptica B09; Bordetella bronchiseptica, B09, 18 h",> 80 µg/mL
same,MIC,"Past. multocida PA1; Pasteurella multocida, PA1, 18 h",1.3 µg/mL
same,MIC,"[7]; Streptococcus suis, 18 h",> 80 µg/mL
same,MIC,"[8]; Mesomycoplasma hyopneumoniae, ATCC25095, 144 h",1 µg/mL
same,MIC,"M. hyorhinis ATCC 25021; Mesomycoplasma hyorhinis, ATCC25021, 144 h",1 µg/mL
same,MIC,"Past. multocida PA2; Pasteurella multocida, PA2, 18 h",0.625 µg/mL
same,MIC,"M. bovis NCTC 10131; NCTC10131, 144 h",0.25 µg/mL
same,MIC,"Strep. agalactiae 2788-B; Streptococcus agalactiae, read-out: MIC",64 µg/mL
same,MIC,"[9]; Staphylococcus aureus, 18 h",1.3 µg/mL
same,MIC,"M. suipneumoniae NB12; Mesomycoplasma hyopneumoniae, NB12, 144 h",2.5 µg/mL
same,MIC,"P. mirabilis 889; Proteus mirabilis, read-out: MIC",> 128 µg/mL
same,MIC,"[10]; Erysipelothrix rhusiopathiae, NCTC8163, 18 h",> 80 µg/mL
same,MIC,"M. suipneumoniae TAM 6N; Mesomycoplasma hyopneumoniae, TAM6N, 144 h",2.5 µg/mL
same,MIC,M. suipneumoniae HK(2); [13],2.5 µg/mL
same,MIC,"[11]; Pseudomonas aeruginosa, NCTC10662, read-out: MIC",> 128 µg/mL
same,MIC,[12]; read-out: MIC,> 128 µg/mL
